This is an account of results in patent publication US4347371A, “Disulfide compounds” (Santen Pharmaceutical Co., Ltd., priority 1978, dated 1982).

Molecules are shown by their SMILES. Like-named read-outs stand apart in the source and are kept apart here.

Data set [1] concerns the target T1, Aldose reductase (Rattus norvegicus, UniProt P07943).
T1 construct: Aldose reductase is purified from rat lenses; from tissue; host or cells: rat lens
As to the kind of experiment: Inhibitory activity against aldose reductase purified from rat lenses (absorbance at 340 nm). It is filed as biochemical.

Data set [2] deals with angiotensin I-converting enzyme. As to the kind of experiment: Suppressive effect on the pressor response to angiotensin I in unanesthetized rats, oral administration (angiotensin I-converting enzyme inhibition). In kind it is in vivo, Male Wistar strain rats. The following applies: rat, angiotensin I 300 ng/kg i.v. As to the method:
As recently it has been clear that the compounds inhibiting angiotensin I-converting enzyme may be the curative potency against both renal hypertension and essential hypertension, the compounds [I] of this invention are evaluated as antihypertensive agents by the following method.
Male Wistar strain rats weighing 200-300 g were used. Under ether anesthesia, polyethylene cannulae are inserted into carotid artery and jugular vein. The cannula to carotid artery is connected to an electric transducer, while the cannula to jugular vein is connected to an apparatus for continuous infusion. After the complete recovery from anesthesia, angiotensin I is infused intravenously in a dose of 300 ng/kg by the apparatus for continuous infusion, and the pressor response is recorded by polygraph (Nihon Koden, RM-150). The compounds of this invention suspended in 0.5% tragacanth solution are administered orally in a dose of 0.3 ml per 100 g of body weight, and the pressor response to angiotensin I infused intravenously is measured with time.

Data set [3] in a line: Acute toxicity test in mice, oral. More on the design: species or system male ddy-std. strain mice. The following applies: mouse, in vivo, male ddy-std. mice, 0.5% tragacanth suspension. The method, then:
The male ddy-std. strain mice (4 weeks of age, weighing 19-21 g) were placed in a breeding room of constant temperature and humidity (23°±1° C., 55±5%) and fed freely pellet diet (CE-2, Clea Japan, Inc.) and water ad. libitum for a week. The mice showing the normal growth were selected for the experiment.
Test compound is suspended in 0.5% tragacanth solution, and administered orally in a dose of 0.5 ml per 20 g B.W.

The mark [4] stands for this setting: pH 6.2, DL-glyceraldehyde 4×10^-4 M, NADPH 5×10^-5 M, read-out: IC50 (molar concentration producing 50% inhibition of aldose reductase).

In the case of `C[C@H](CSSC[C@@H](C)C(=O)N1C(c2cccc3ccccc23)SC[C@H]1C(=O)O)C(=O)N1C(c2cccc3ccccc23)SC[C@H]1C(=O)O` (stereo partly shown) [Compound 24], the IC50 in data set [1] (setting [4]) was 870 nM.

Turning to `C[C@H](CSSC[C@@H](C)C(=O)N1C(c2ccccc2O)SC[C@H]1C(=O)O)C(=O)N1C(c2ccccc2O)SC[C@H]1C(=O)O` (stereo partly drawn) [Compound 2, (4R,4'R)-3,3'-[3,3'-Dithiobis[(2S)-2-methylpropanoyl]]bis[2-(2-hydroxyphenyl)-4-thiazolidinecarboxylic acid]], the “Inhibition (%) of pressor response to angiotensin I” value (shortened to “Inhibition (%) of pressor response”) in data set [2] (dose 1.4 mg/kg oral, 25 min) is on record as 30%; in data set [2] (dose 1.4 mg/kg oral, 65 min), 35%. Besides, the IC50 in data set [1] (setting [4]) is 97 nM.

For `O=C(O)C1CCC(c2ccccc2O)N1C(=O)CCSSCCC(=O)N1C(C(=O)O)CCC1c1ccccc1O` (single isomer, unassigned) [Compound 27], the “Inhibition (%) of pressor response” value in data set [2] (dose 1.3 mg/kg oral, 25 min) was determined as 65%; in data set [2] (dose 1.3 mg/kg oral, 65 min), 55%.

On to `CC(=O)Oc1ccccc1C1SC[C@@H](C(=O)O)N1C(=O)CCSSCCC(=O)N1C(c2ccccc2OC(C)=O)SC[C@H]1C(=O)O` (stereo partly drawn) [Compound 3, (4R,4'R)-3,3'-[3,3'-Dithiobis(propanoyl)]bis[2-(2-acetoxyphenyl)-4-thiazolidinecarboxylic acid]], for which the “Inhibition (%) of pressor response” value in data set [2] (dose 1.0 mg/kg oral, 25 min) came out at 15%; in data set [2] (dose 1.0 mg/kg oral, 65 min), 55%. Besides, the IC50 in data set [1] (setting [4]) came out at 870 nM.

Regarding `O=C(O)CCSSCCC(=O)N1C(c2ccccc2O)SC[C@H]1C(=O)O` (stereo partly drawn) [Compound 41, (4R)-3-[3-(2-Carboxyethyldisulfanyl)propanoyl]-2-(2-hydroxyphenyl)-4-thiazolidinecarboxylic acid], the “Inhibition (%) of pressor response” value in data set [2] (dose 1.3 mg/kg oral, 25 min) was found to be 50%; in data set [2] (dose 1.3 mg/kg oral, 65 min) it was 60%. In addition, the IC50 in data set [1] (setting [4]) came to 20 nM.

Take `O=C(O)[C@@H]1CSC(c2ccccc2O)N1C(=O)CSSCC(=O)N1C(c2ccccc2O)SC[C@H]1C(=O)O` (stereo partly shown) [Compound 15]: the IC50 in data set [1] (setting [4]) came out at 310 nM.

Turning to `O=C(O)[C@@H]1CSC(c2cccc(O)c2)N1C(=O)CCSSCCC(=O)N1C(c2cccc(O)c2)SC[C@H]1C(=O)O` (stereo partly shown) [Compound 10], the IC50 in data set [1] (setting [4]) amounted to 730 nM.

On to `C=CCSSC[C@@H](C)C(=O)N1C(c2ccc(OC)cc2)SC[C@H]1C(=O)O` (stereo partly shown) [Compound 37], for which the “Inhibition (%) of pressor response” value in data set [2] (dose 1.0 mg/kg oral, 25 min) is 60%; in data set [2] (dose 1.0 mg/kg oral, 65 min), 35%.

`O=C(O)[C@@H]1CSC(c2ccccc2O)N1C(=O)CCSSCC1CCCO1` (stereo partly shown) [Compound 39]: the IC50 in data set [1] (setting [4]) was 840 nM.

As to `O=C(O)C1CCC(c2ccccc2O)N1C(=O)CCS` (single isomer, unassigned) [Compound 27A, α-(+)5-(2-hydroxyphenyl)-1-(3-mercaptopropanoyl)-2-pyrrolidinecarboxylic acid, reference compound], the “Inhibition (%) of pressor response” value in data set [2] (dose 1.3 mg/kg oral, 25 min) worked out at 70%; in data set [2] (dose 1.3 mg/kg oral, 65 min), 50%.

For the molecule `C[C@H](CS)C(=O)N1CSC[C@H]1C(=O)O` [Compound 43A, (4R)3-[(2S)-3-mercapto-2-methylpropanoyl]-4-thiazolidinecarboxylic acid, reference compound], the “Inhibition (%) of pressor response” value is 50% in data set [2] (dose 1.0 mg/kg oral, 25 min) and 30% in data set [2] (dose 1.0 mg/kg oral, 65 min).

On to `CCCSSC[C@@H](C)C(=O)N1CSC[C@H]1C(=O)O` [Compound 43, (4R)-3-[(2S)-2-methyl-3-propyldisulfanylpropanoyl]-4-thiazolidinecarboxylic acid], for which the “Inhibition (%) of pressor response” value turned out to be 70% in data set [2] (dose 1.0 mg/kg oral, 25 min) and 40% in data set [2] (dose 1.0 mg/kg oral, 65 min).

In data set [1], `C[C@@H]1O[C@@H](Oc2c(-c3ccc(O)c(O)c3)oc3cc(O)cc(O)c3c2=O)[C@H](O)[C@H](O)[C@H]1O` [Control, Quercitrin, reference compound] gave an IC50 of 90 nM.

Regarding `CC(C)(C)C(=O)OCOC(=O)[C@@H]1CSC(c2ccccc2O)N1C(=O)CCSSCCC(=O)N1C(c2ccccc2O)SC[C@H]1C(=O)OCOC(=O)C(C)(C)C` (stereo partly drawn) [Compound 49, Bis[(2,2-dimethyl-1-oxopropoxy)methyl](4R,4'R)-3,3'-[3,3'-dithiobis(propanoyl)]bis[2-(2-hydroxyphenyl)-4-thiazolidinecarboxylate]], the “Inhibition (%) of pressor response” value in data set [2] (dose 1.3 mg/kg oral, 25 min) is reported as 35%; in data set [2] (dose 1.3 mg/kg oral, 65 min), 60%.

Consider `C[C@H](CSSC[C@@H](C)C(=O)N1C(c2cc(Cl)ccc2O)SC[C@H]1C(=O)O)C(=O)N1C(c2cc(Cl)ccc2O)SC[C@H]1C(=O)O` (stereo partly drawn) [Compound 11, (4R,4'R)-3,3'-[3,3'-dithiobis[(2S)-2-methylpropanoyl]]bis[2-(5-chloro-2-hydroxyphenyl)-4-thiazolidinecarboxylic acid]], for which the IC50 in data set [1] (setting [4]) stood at 640 nM.

On to `Cc1ccc(C2SC[C@@H](C(=O)O)N2C(=O)[C@H](C)CSSC[C@@H](C)C(=O)N2C(c3ccc(C)cc3)SC[C@H]2C(=O)O)cc1` (stereo partly drawn) [Compound 8, (4R,4'R)-3,3'-[3,3'-dithiobis[(2S)-2-methylpropanoyl]]bis[2-(4-methylphenyl)-4-thiazolidinecarboxylic acid]], for which the IC50 in data set [1] (setting [4]) was found to be 450 nM.

`CCCSSCCC(=O)N1C(c2ccccc2O)SC[C@H]1C(=O)O` (stereo partly drawn) [Compound 34, (4R)-2-(2-Hydroxyphenyl)-3-(3-propyldisulfanylpropanoyl)-4-thiazolidinecarboxylic acid]: the “Inhibition (%) of pressor response” value in data set [2] (dose 1.0 mg/kg oral, 25 min) is 45%; in data set [2] (dose 1.0 mg/kg oral, 65 min), 55%. The IC50 in data set [1] (setting [4]) turned out to be 860 nM.

As to `C[C@H](CS)C(=O)N1C(c2ccccc2O)SC[C@H]1C(=O)O` (stereo partly drawn) [Compound 2A, (4R)2-(2-hydroxyphenyl)-3-[(2S)-3-mercapto-2-methylpropanoyl]-4-thiazolidinecarboxylic acid, reference compound], the “Inhibition (%) of pressor response” value in data set [2] (dose 1.4 mg/kg oral, 25 min) was 40%; in data set [2] (dose 1.4 mg/kg oral, 65 min), 30%.

With `O=C(O)[C@@H]1CSC(c2ccccc2O)N1C(=O)CCSSCCC(=O)N1C(c2ccccc2O)SC[C@H]1C(=O)O` (stereo partly drawn) [Compound 1, (4R,4'R)-3,3'-[3,3'-Dithiobis(propanoyl)]bis[2-(2-hydroxyphenyl)-4-thiazolidinecarboxylic acid]], the “Inhibition (%) of pressor response” value in data set [2] (dose 1.0 mg/kg oral, 25 min) was 45%; in data set [2] (dose 1.0 mg/kg oral, 65 min), 55%. In addition, in data set [1] (setting [4]), the IC50 amounted to 97 nM. Moreover, in data set [3], the 50% lethal dose (LD50) – broadly, the dose expected to kill half of the subjects tested – is 15000 mg/kg.

On to `COc1ccc(C2SC[C@@H](C(=O)O)N2C(=O)[C@H](C)CS)cc1` (stereo partly drawn) [Compound 37A, (4R)3-[(2S)-3-mercapto-2-methylpropanoyl]-2-(4-methoxyphenyl)-4-thiazolidinecarboxylic acid, reference compound], for which the “Inhibition (%) of pressor response” value in data set [2] (dose 1.0 mg/kg oral, 25 min) is reported as 40%; in data set [2] (dose 1.0 mg/kg oral, 65 min), 20%.

Regarding `O=C(O)[C@@H]1CSC(c2ccccc2O)N1C(=O)CCS` (stereo partly drawn) [Compound 1A, (4R)2-(2-hydroxyphenyl)-3-(3-mercaptopropanoyl)-4-thiazolidinecarboxylic acid, reference compound], the “Inhibition (%) of pressor response” value in data set [2] (dose 1.0 mg/kg oral, 25 min) was 55%; in data set [2] (dose 1.0 mg/kg oral, 65 min), 35%.

`O=C(O)[C@@H]1CSC(c2ccccc2)N1C(=O)CCSSCCC(=O)N1C(c2ccccc2)SC[C@H]1C(=O)O` (stereo partly shown) [Compound 7]: the IC50 in data set [1] (setting [4]) turned out to be 200 nM.

As to `O=C(O)[C@@H]1CSC(c2ccccc2O)N1C(=O)CCCSSCCCC(=O)N1C(c2ccccc2O)SC[C@H]1C(=O)O` (stereo partly shown) [Compound 4], the IC50 in data set [1] (setting [4]) came out at 96 nM.
